According to patent US9637481B2 (RALEXAR THERAPEUTICS, INC., priority 2012, dated 2017):

target: T1, human LXRβ (AA 153-461) LBD (Homo sapiens, UniProt P55055); test: Gal4 LXRβ cotransfection assay (LXRβ Gal fusion assay); format: cell-based; conditions: HEK 293 cells, Gal4-responsive luciferase reporter, compounds 0.01-10 μM
T1 construct: pM human LXRβ (AA 153-461) LBD plasmid; expressed in transfected cells; host or cells: HEK 293
T1 sequence (P55055 153-460 limits assumed): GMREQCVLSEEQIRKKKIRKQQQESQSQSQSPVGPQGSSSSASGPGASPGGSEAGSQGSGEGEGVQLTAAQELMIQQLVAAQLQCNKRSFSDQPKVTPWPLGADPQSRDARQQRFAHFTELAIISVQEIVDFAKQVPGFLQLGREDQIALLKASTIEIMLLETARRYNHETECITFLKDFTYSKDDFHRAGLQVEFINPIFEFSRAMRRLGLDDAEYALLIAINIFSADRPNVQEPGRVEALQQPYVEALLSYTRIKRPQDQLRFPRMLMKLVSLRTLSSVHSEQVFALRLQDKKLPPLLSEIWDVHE
Protocol: For transient transfection of HEK 293 cells, 6×10^3 cells were plated into 96-well dishes. Each well was transfected with 25 ng 5×UAS-luciferase reporter (pG5luc) and 25 ng of pM human LXRβ (AA 153-461) LBD plasmid using Fugene 6 reagent (Roche; Indianapolis, Ind.). The chimeric protein was assessed for the ability to transactivate a Gal4-responsive luciferase reporter plasmid in a concentration-responsive manner to compounds (0.01-10 μM). Luciferase activity at each dose concentration was measured in triplicate using standard substrate reagents (BD Biosciences; San Diego, Calif.). Data are expressed as relative light units and are shown below in Table 1.

SMILES | EC50 [nM]
CSCOC(=O)Cn1nc(C(F)(F)F)cc1-c1ccc(-c2cccc(S(C)(=O)=O)c2)cc1 [Compound 41, methylthiomethyl 2-(5-(3′-(methylsulfonyl)biphenyl-4-yl)-3-(trifluoromethyl)-1H-pyrazol-1-yl)acetate] | 1000 to 10000
CCOC(=O)Cn1nc(C(F)(F)F)cc1-c1ccc(-c2ccc(CO)c(S(C)(=O)=O)c2)cc1 [Compound 51, ethyl 2-(5-(4′-(hydroxymethyl)-3′-(methylsulfonyl)biphenyl-4-yl)-3-(trifluoromethyl)-1H-pyrazol-1-yl)acetate] | < 1000
CS(=O)(=O)c1cccc(-c2ccc(-c3cc(C(F)(F)F)nn3CC(=O)O)cc2)c1 [Compound 38, 2-(5-(3′-(methylsulfonyl)-[1,1′-biphenyl]-4-yl)-3-(trifluoromethyl)-1H-pyrazol-1-yl)acetic acid] | > 10000
COC(=O)c1cc(-c2nnc(-c3cccc(S(C)(=O)=O)c3)s2)n(-c2ccccc2Cl)n1 [Compound 9, methyl 1-(2-chlorophenyl)-5-(5-(3-(methylsulfonyl)phenyl)-1,3,4-thiadiazol-2-yl)-1H-pyrazole-3-carboxylate] | 1000 to 10000
COC(=O)Cn1nc(C(F)(F)F)cc1-c1ccc(-c2cccc(S(C)(=O)=O)c2)s1 [Compound 18, methyl 2-(5-(5-(3-(methylsulfonyl)phenyl)thiophen-2-yl)-3-(trifluoromethyl)-1H-pyrazol-1-yl)acetic acid] | > 10000
CC(C)OC(=O)Cn1nc(C(F)(F)F)cc1-c1ccc(-c2cccc(S(C)(=O)=O)c2)s1 [Compound 49] | < 1000
CCOC(=O)Cn1nc(C(F)(F)F)cc1-c1ccc(-c2cccc(S(C)(=O)=O)c2)cc1 [Compound 36, ethyl 2-(5-(3′-(methylsulfonyl)-[1,1′-biphenyl]-4-yl)-3-(trifluoromethyl)-1H-pyrazol-1-yl)acetate] | < 1000
CCOC(=O)Cn1nc(C(F)(F)F)cc1-c1ccc(-c2ccc(CO)c(S(C)(=O)=O)c2)s1 [Compound 50, ethyl 2-(5-(5-(4-(hydroxymethyl)-3-(methylsulfonyl)phenyl)thiophen-2-yl)-3-(trifluoromethyl)-1H-pyrazol-1-yl)acetate] | < 1000
CS(=O)(=O)c1cccc(-c2nnc(-c3cc(C(=O)O)nn3-c3ccccc3Cl)o2)c1 [Compound 12, 1-(2-chlorophenyl)-5-(5-(3-(methylsulfonyl)phenyl)-1,3,4-oxadiazol-2-yl)-1H-pyrazole-3-carboxylic acid] | > 10000
COC(=O)c1cc(-c2nnc(-c3cccc(S(C)(=O)=O)c3)o2)n(-c2ccccc2Cl)n1 [Compound 11, methyl 1-(2-chlorophenyl)-5-(5-(3-(methylsulfonyl)phenyl)-1,3,4-oxadiazol-2-yl)-1H-pyrazole-3-carboxylate] | < 1000
CS(=O)(=O)c1cccc(-c2nnc(-c3cc(C(=O)O)nn3-c3ccccc3Cl)s2)c1 [Compound 10, 1-(2-chlorophenyl)-5-(5-(3-(methylsulfonyl)phenyl)-1,3,4-thiadiazol-2-yl)-1H-pyrazole-3-carboxylic acid] | > 10000
CS(=O)(=O)c1cccc(-c2ccc(-c3cc(C(F)(F)F)nn3CC(=O)OCCl)s2)c1 [Compound 52, chloromethyl 2-(5-(5-(3-(methylsulfonyl)phenyl)thiophen-2-yl)-3-(trifluoromethyl)-1H-pyrazol-1-yl)acetate] | < 1000
CCOC(=O)Cn1nc(C(F)(F)F)cc1-c1ccc(-c2cccc(S(C)(=O)=O)c2)s1 [Compound 16, ethyl 2-(5-(5-(3-(methylsulfonyl)phenyl)thiophen-2-yl)-3-(trifluoromethyl)-1H-pyrazol-1-yl)acetate] | < 1000
